Measurements taken from the supplement of paper PMC10307832.

Compound: CC1(C)CNc2cc(NC(=O)c3cccnc3NCc3ccncc3)ccc21 [Motesanib] + N=C(N)NC(=N)NCCc1ccccc1 [Phenformin] (partner 250 µM)
Assay: relative viability (nuclei count vs DMSO), 5 days (fraction); higher = more cells survive
Settings: first compound 0.01 µM
In short: (§1)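 Five library-drug doses in √10 steps were combined with a fixed anchor-drug dose, or a single drug was given alone, by pin tool to lung cancer cell lines in 1536-well plates the day after seeding. Nuclei were stained and counted after 5 days. Relative viability is the nuclei count in treated wells over that in vehicle wells, taken as the median of duplicate plates.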

| Cell Line | relative viability |
| --- | --- |
| NCI-H1793 | 0.295 |
| PC-14 | 0.471 |
| EKVX | 0.225 |
| LC-2-ad | 0.531 |
| NCI-H1944 | 0.184 |
| NCI-H1975 | 0.407 |
| RERF-LC-KJ | 0.462 |
| ABC-1 | 0.238 |
| NCI-H358 | 0.384 |
| NCI-H650 | 0.457 |
| PC-3 [JPC-3] | 0.482 |

Same assay, conditions: first compound 0.03162 µM

| Cell Line | relative viability |
| --- | --- |
| NCI-H23 | 0.865 |
| NCI-H647 | 0.554 |
| CAL-12T | 0.487 |
| NCI-H1651 | 0.367 |
| EPLC-272H | 0.333 |
| NCI-H2228 | 0.329 |
| NCI-H1355 | 0.416 |
| NCI-H3122 | 0.338 |
| NCI-H1437 | 0.282 |
| NCI-H1755 | 0.631 |
| NCI-H2023 | 0.297 |
| HCC-15 | 0.376 |
| NCI-H1793 | 0.313 |
| PC-14 | 0.53 |
| EKVX | 0.231 |
| LC-2-ad | 0.664 |
| NCI-H1944 | 0.2 |
| NCI-H1975 | 0.391 |
| RERF-LC-KJ | 0.389 |
| ABC-1 | 0.229 |
| NCI-H358 | 0.414 |
| PC-3 [JPC-3] | 0.478 |

Same assay, conditions: first compound 0.1 µM

| Cell Line | relative viability |
| --- | --- |
| NCI-H23 | 0.771 |
| NCI-H647 | 0.462 |
| CAL-12T | 0.61 |
| NCI-H1651 | 0.342 |
| NCI-H2228 | 0.257 |
| NCI-H1792 | 0.367 |
| NCI-H1355 | 0.49 |
| NCI-H3122 | 0.409 |
| NCI-H1437 | 0.282 |
| NCI-H1755 | 0.665 |
| NCI-H2023 | 0.443 |
| HCC-15 | 0.497 |
| NCI-H1793 | 0.307 |
| PC-14 | 0.663 |
| EKVX | 0.242 |
| LC-2-ad | 0.566 |
| NCI-H1944 | 0.221 |
| NCI-H1975 | 0.393 |
| RERF-LC-KJ | 0.407 |
| ABC-1 | 0.223 |
| NCI-H358 | 0.331 |
| NCI-H650 | 0.492 |
| PC-3 [JPC-3] | 0.458 |

Same assay, conditions: first compound 0.3162 µM

| Cell Line | relative viability |
| --- | --- |
| NCI-H23 | 0.795 |
| NCI-H647 | 0.657 |
| CAL-12T | 0.627 |
| NCI-H1651 | 0.352 |
| EPLC-272H | 0.338 |
| NCI-H2228 | 0.394 |
| NCI-H1792 | 0.258 |
| NCI-H1355 | 0.482 |
| NCI-H3122 | 0.427 |
| NCI-H1437 | 0.316 |
| NCI-H1755 | 0.747 |
| NCI-H2023 | 0.421 |
| HCC-15 | 0.527 |
| NCI-H1793 | 0.39 |
| PC-14 | 0.604 |
| EKVX | 0.248 |
| LC-2-ad | 0.566 |
| NCI-H1944 | 0.246 |
| NCI-H1975 | 0.409 |
| RERF-LC-KJ | 0.373 |
| ABC-1 | 0.229 |
| NCI-H358 | 0.418 |
| NCI-H650 | 0.544 |
| PC-3 [JPC-3] | 0.512 |

Same assay, conditions: first compound 1 µM

| Cell Line | relative viability |
| --- | --- |
| NCI-H23 | 0.715 |
| NCI-H647 | 0.524 |
| CAL-12T | 0.534 |
| NCI-H1651 | 0.339 |
| EPLC-272H | 0.247 |
| NCI-H2228 | 0.208 |
| NCI-H1792 | 0.243 |
| NCI-H1355 | 0.475 |
| NCI-H3122 | 0.375 |
| NCI-H1437 | 0.305 |
| NCI-H1755 | 0.619 |
| NCI-H2023 | 0.463 |
| HCC-15 | 0.503 |
| NCI-H1793 | 0.362 |
| PC-14 | 0.586 |
| EKVX | 0.24 |
| LC-2-ad | 0.534 |
| NCI-H1944 | 0.254 |
| NCI-H1975 | 0.441 |
| RERF-LC-KJ | 0.467 |
| ABC-1 | 0.242 |
| NCI-H358 | 0.468 |
| NCI-H650 | 0.434 |
| PC-3 [JPC-3] | 0.507 |

Compound: CC1(C)CNc2cc(NC(=O)c3cccnc3NCc3ccncc3)ccc21 [Motesanib] + CC(=O)c1c(C)c2cnc(Nc3ccc(N4CCNCC4)cn3)nc2n(C2CCCC2)c1=O [Palbociclib] (partner 0.5 µM)
Assay: as above
Settings: first compound 0.01 µM
In short: as §1

| Cell Line | relative viability |
| --- | --- |
| NCI-H23 | 0.482 |
| NCI-H647 | 0.428 |
| CAL-12T | 0.418 |
| NCI-H1651 | 0.528 |
| EPLC-272H | 0.284 |
| NCI-H2228 | 0.664 |
| NCI-H1355 | 0.429 |
| NCI-H3122 | 0.186 |
| NCI-H1437 | 0.271 |
| NCI-H1755 | 0.459 |
| NCI-H2023 | 0.365 |
| HCC-15 | 0.777 |
| NCI-H1793 | 0.351 |
| PC-14 | 0.465 |
| EKVX | 0.415 |
| LC-2-ad | 0.487 |
| NCI-H1944 | 0.352 |
| NCI-H1975 | 0.53 |
| RERF-LC-KJ | 1.11 |
| ABC-1 | 0.633 |
| NCI-H358 | 0.142 |
| NCI-H650 | 0.32 |
| PC-3 [JPC-3] | 0.558 |

Same assay, conditions: first compound 0.03162 µM

| Cell Line | relative viability |
| --- | --- |
| NCI-H23 | 0.491 |
| NCI-H647 | 0.262 |
| CAL-12T | 0.524 |
| NCI-H1651 | 0.523 |
| EPLC-272H | 0.3 |
| NCI-H2228 | 0.8 |
| NCI-H1792 | 0.583 |
| NCI-H1355 | 0.413 |
| NCI-H3122 | 0.194 |
| NCI-H1437 | 0.266 |
| NCI-H1755 | 0.46 |
| NCI-H2023 | 0.378 |
| HCC-15 | 0.668 |
| NCI-H1793 | 0.306 |
| PC-14 | 0.539 |
| EKVX | 0.347 |
| LC-2-ad | 0.514 |
| NCI-H1944 | 0.328 |
| NCI-H1975 | 0.508 |
| RERF-LC-KJ | 0.968 |
| ABC-1 | 0.541 |
| NCI-H358 | 0.133 |
| NCI-H650 | 0.3 |
| PC-3 [JPC-3] | 0.544 |

Same assay, conditions: first compound 0.1 µM

| Cell Line | relative viability |
| --- | --- |
| NCI-H23 | 0.456 |
| NCI-H647 | 0.395 |
| CAL-12T | 0.347 |
| NCI-H1651 | 0.538 |
| EPLC-272H | 0.344 |
| NCI-H2228 | 0.589 |
| NCI-H1792 | 0.653 |
| NCI-H1355 | 0.397 |
| NCI-H3122 | 0.213 |
| NCI-H1437 | 0.295 |
| NCI-H1755 | 0.487 |
| NCI-H2023 | 0.361 |
| HCC-15 | 0.695 |
| NCI-H1793 | 0.335 |
| PC-14 | 0.539 |
| EKVX | 0.378 |
| LC-2-ad | 0.556 |
| NCI-H1944 | 0.334 |
| NCI-H1975 | 0.507 |
| RERF-LC-KJ | 1.18 |
| ABC-1 | 0.7 |
| NCI-H358 | 0.132 |
| NCI-H650 | 0.356 |
| PC-3 [JPC-3] | 0.568 |

Same assay, conditions: first compound 0.3162 µM

| Cell Line | relative viability |
| --- | --- |
| NCI-H23 | 0.604 |
| NCI-H647 | 0.423 |
| CAL-12T | 0.415 |
| NCI-H1651 | 0.508 |
| EPLC-272H | 0.36 |
| NCI-H2228 | 0.937 |
| NCI-H1792 | 0.675 |
| NCI-H1355 | 0.392 |
| NCI-H3122 | 0.217 |
| NCI-H1437 | 0.302 |
| NCI-H1755 | 0.477 |
| NCI-H2023 | 0.385 |
| HCC-15 | 0.768 |
| NCI-H1793 | 0.277 |
| PC-14 | 0.512 |
| EKVX | 0.36 |
| LC-2-ad | 0.49 |
| NCI-H1944 | 0.302 |
| NCI-H1975 | 0.565 |
| RERF-LC-KJ | 1.12 |
| ABC-1 | 0.938 |
| NCI-H358 | 0.161 |
| NCI-H650 | 0.319 |
| PC-3 [JPC-3] | 0.605 |

Same assay, conditions: first compound 1 µM

| Cell Line | relative viability |
| --- | --- |
| NCI-H23 | 0.467 |
| NCI-H647 | 0.466 |
| CAL-12T | 0.563 |
| NCI-H1651 | 0.513 |
| EPLC-272H | 0.381 |
| NCI-H2228 | 0.613 |
| NCI-H1792 | 0.667 |
| NCI-H1355 | 0.38 |
| NCI-H3122 | 0.161 |
| NCI-H1437 | 0.278 |
| NCI-H1755 | 0.48 |
| NCI-H2023 | 0.401 |
| HCC-15 | 0.702 |
| NCI-H1793 | 0.334 |
| PC-14 | 0.593 |
| EKVX | 0.398 |
| LC-2-ad | 0.5 |
| NCI-H1944 | 0.326 |
| NCI-H1975 | 0.617 |
| RERF-LC-KJ | 1.19 |
| ABC-1 | 0.763 |
| NCI-H358 | 0.13 |
| NCI-H650 | 0.341 |
| PC-3 [JPC-3] | 0.559 |
